Measured values as given in US9351956B1, “Pharmaceutical composition comprising an enantiomer of lipoamide and derivatives thereof and method of use” (GeroNova Research Inc., priority 2012, dated 2016).

Key:
Type in all cases: cell-based
Details in all cases: HepG2 cells, 0.2 mM, 8 hours, 5.5 mM glucose
[1] = test system: peroxisome proliferator-activated receptor (PPAR); assay: dual-luciferase reporter array, PPAR
Protocol: (§1) Nine test compounds were synthesized and characterized. The effects of R, S and RS forms of LA, LAM and LAP on multiple signaling pathways were studied in HepG2 cells at 0.2 mM for 8 hours (5.5 mM glucose) using a dual-luciferase reporter array. The reporter is a mixture of Firefly Luciferase gene construct under control of an inducible transcription factor-responsive promoter and an internal control plasmid constitutively expressing Renilla luciferase gene. Each inducible construct monitors changes in the activity of a select transcription factor serving as a marker for activation or suppression of a specific signaling pathway.

[2] = test system: PI3K/AKT; assay: dual-luciferase reporter array, FOXO reporter as inverse marker for PI3K/AKT
Protocol: as §1
This above studies identified previously unknown enantioselective and non-enantioselective pathways differentially affected by LA and amide derivatives. In some cases the racemic compounds activate pathways not activated by either enantiomer. […] The heavy metal response pathway was similarly affected by all nine compounds, which lowered values below control levels. […] The greatest increase in activity of a pathway by all compounds was activation of the Antioxidant Response Element (ARE) but the magnitude varied widely by compound. […] Activation of FOXO transcription factors is repressed by AKT phosphorylation and thus functions as an inverse marker for PI3K/AKT activity, such that low pathway activity increases the magnitude of the FOXO reporter.

[3] = test system: Antioxidant Response Element (ARE); assay: dual-luciferase reporter array, ARE
Protocol: as §1

[4] = test system: progesterone receptor (PR); assay: dual-luciferase reporter array, PR
Protocol: as §1

[5] = test system: retinoic acid response element (RAR); assay: dual-luciferase reporter array, RAR
Protocol: as §1

[6] = test system: C/EBP; assay: dual-luciferase reporter array, C/EBP
Protocol: as §1

[7] = test system: xenobiotic response element (XRE); assay: dual-luciferase reporter array, XRE
Protocol: as §1

[8] = test system: heat shock factor (HSF); assay: dual-luciferase reporter array, HSF
Protocol: as §1

Row | SMILES | PI3K/AKT activation (inverse of FOXO reporter response) [2] | XRE induction [7] | ARE response (activation) [3] | also measured
1 | O=C(O)CCCC[C@H]1CCSS1 [SLA, S-(−)-lipoic acid] | minimal | – | – | PPAR activity [1]: lowered
2 | NC(=O)CCCC[C@@H]1CCSS1 [RLAM, R-(+)-lipoamide] | – | – | strongest ARE response | PR activation [4]: selectively activates
3 | CN(C)CCNC(=O)CCCC[C@H]1CCSS1 [SLAP] | – | induced | – | –

More lines, main results first:

Row | PI3K/AKT activation (inverse of FOXO reporter response) [2] | XRE induction [7] | SMILES | ARE response (activation) [3] | also measured
4 | strongly activates | – | O=C(O)CCCC[C@@H]1CCSS1 [RLA, R-(+)-lipoic acid] | – | RAR activation [5]: selectively activates; C/EBP activation [6]: selectively activates
5 | – | induced | NC(=O)CCCC[C@H]1CCSS1 [SLAM, S-(−)-lipoamide] | activated | HSF activation [8]: activated
